Where a name gives a salt, the structure may show the parent alone. Read-outs that look alike come from different tables or passages of the source.
Key:
[1] = system: CD69 expression on CD19+ B cells in whole blood; test: In Vitro Whole Blood CD69 Assay; assay type: cell-based, Human; conditions: human heparinized whole blood, anti-human IgD stimulation, percentage of CD19+ B cells expressing CD69, read-out: IC50
Experimental: In Vitro Whole Blood CD69 Assay
Human heparinized venous blood from health donors was aliquoted into 96-well plate and “spiked” with serial dilutions of formula I compounds in DMSO or with DMSO without drug. The final concentration of DMSO in all wells was 0.1%. The plate was incubated at 37° C. for 30 min. Drug-containing samples were stimulated with 0.1 μg/mL mouse anti-human IgD-dextran (1A62) or 20 μg/mL polyclonal rabbit F(ab′)2 anti-human IgD. Phosphate-buffered saline (PBS) was added to the negative control unstimulated sample and the plates were incubated overnight (18 to 22 hours) at 37° C. Cells were stained with fluorochrome-conjugated anti-CD19 and anti-CD69 antibodies. Lyse/fix solution was used to remove red blood cells by hypotonic lysis and to fix the remaining cells, which were then analyzed by flow cytometry. CD19+ B cells were gated and analyzed for CD69 expression. The percentage of B cells expressing CD69 was plotted versus the log 10 of the concentration of the drug and the best-fit curves (variable Hill slope) were generated to obtain the IC50 value.

BTK = BTK (Homo sapiens (Human), UniProt Q06187); test: In Vitro BTK Kinase Assay: Btk-PolyGAT-LS Assay; assay type: biochemical; conditions: active BTK enzyme 0.25 nM, ATP 10 μM, polyGAT 100 nM, 30 minutes
Outline: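 Recombinant BTK (0.25 nM) phosphorylating 100 nM polyGAT at 10 μM ATP in Tris-HCl pH 7.5 buffer with MgCl2, DTT, Triton X-100 and casein, 30 min, then EDTA stop.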

Sequence of BTK (Q06187 whole entry): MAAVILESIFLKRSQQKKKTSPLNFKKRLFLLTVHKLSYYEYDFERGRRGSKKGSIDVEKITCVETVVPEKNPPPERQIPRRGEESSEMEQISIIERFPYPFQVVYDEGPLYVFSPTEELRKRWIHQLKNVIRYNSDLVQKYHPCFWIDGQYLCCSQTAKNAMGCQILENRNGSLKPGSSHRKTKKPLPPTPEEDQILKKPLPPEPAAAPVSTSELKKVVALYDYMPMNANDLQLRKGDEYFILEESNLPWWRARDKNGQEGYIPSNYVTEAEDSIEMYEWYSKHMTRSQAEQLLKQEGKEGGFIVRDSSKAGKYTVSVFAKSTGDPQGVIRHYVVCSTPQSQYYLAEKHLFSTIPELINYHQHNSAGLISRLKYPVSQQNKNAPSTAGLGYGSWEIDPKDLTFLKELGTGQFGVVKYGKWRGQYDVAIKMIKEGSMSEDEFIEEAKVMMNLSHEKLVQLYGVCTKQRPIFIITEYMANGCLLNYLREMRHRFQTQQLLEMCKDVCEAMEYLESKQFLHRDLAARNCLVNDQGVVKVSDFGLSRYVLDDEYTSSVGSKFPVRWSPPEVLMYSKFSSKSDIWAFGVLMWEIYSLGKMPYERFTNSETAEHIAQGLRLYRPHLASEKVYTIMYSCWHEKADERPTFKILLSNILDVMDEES

With `CC(C)(C)c1nc(C(=O)NCc2ccc(-c3ncnn4cc(N5CCOCC5)cc34)cc2C(F)(F)F)no1` [Example 34, 5-(tert-butyl)-N-(4-(6-morpholinopyrrolo[2,1-f][1,2,4]triazin-4-yl)-2-(trifluoromethyl)benzyl)-1,2,4-oxadiazole-3-carboxamide hydrochloride] the IC50 ([1]; Homo sapiens, B-cell) was 100 to 1000 nM and the IC50 (BTK) was no more than 1 nM.
`Cc1c([C@@H](C)NC(=O)c2noc(C(C)(C)C)n2)ccc(-c2ncnn3cc(N4CCOCC4)cc23)c1F` [Example 31, (R)-5-(tert-butyl)-N-(1-(3-fluoro-2-methyl-4-(6-morpholinopyrrolo[2,1-f][1,2,4]triazin-4-yl)phenyl)ethyl)-1,2,4-oxadiazole-3-carboxamide] showed an IC50 ([1]; Homo sapiens, B-cell) of 100 to 1000 nM and an IC50 (BTK) of no more than 1 nM.
Molecule `Cc1cc(-c2ncnn3cc(N4CCN(C)[C@@H](C)C4)cc23)ccc1CNC(=O)c1nc(C(C)(C)C)no1` (single isomer, unassigned) [Example 28] has an IC50 ([1]; Homo sapiens, B-cell) of 100 to 1000 nM and an IC50 (BTK) of no more than 1 nM.
With `Cc1cc(-c2ncnn3cc(N4CCOCC4)cc23)ccc1CNC(=O)c1noc(C(C)(C)C)n1` [Example 5, 5-(tert-butyl)-N-(2-methyl-4-(6-morpholinopyrrolo[2,1-f][1,2,4]triazin-4-yl)benzyl)-1,2,4-oxadiazole-3-carboxamide trifluoroacetate] the IC50 ([1]; Homo sapiens, B-cell) was 100 to 1000 nM and the IC50 (BTK) was no more than 1 nM.
With `CC(C)(C)c1nc(C(=O)N[C@@H]2CCCCc3c2ccc(-c2ncnn4cccc24)c3F)no1` [Example 56, (R)-5-(tert-butyl)-N-(1-fluoro-2-(pyrrolo[2,1-f][1,2,4]triazin-4-yl)-6,7,8,9-tetrahydro-5H-benzo[7]annulen-5-yl)-1,2,4-oxadiazole-3-carboxamide hydrochloride] the IC50 ([1]; Homo sapiens, B-cell) was 100 to 1000 nM and the IC50 (BTK) was no more than 1 nM.
In the case of `Cc1cc(-c2ncnn3cc(-c4cnn(CC(F)F)c4)cc23)ccc1CNC(=O)c1noc(C(C)(C)C)n1` [Example 10, 5-(tert-butyl)-N-(4-(6-(1-(2,2-difluoroethyl)-1H-pyrazol-4-yl)pyrrolo[2,1-f][1,2,4]triazin-4-yl)-2-methylbenzyl)-1,2,4-oxadiazole-3-carboxamide trifluoroacetate], the IC50 ([1]; Homo sapiens, B-cell) is reported as 100 to 1000 nM and the IC50 (BTK) is reported as no more than 1 nM.
`Cc1cc(-c2ncnn3cc(C4=CCOCC4)cc23)ccc1CNC(=O)c1noc(C(C)(C)C)n1` [Example 6, 5-(tert-butyl)-N-(4-(6-(3,6-dihydro-2H-pyran-4-yl)pyrrolo[2,1-f][1,2,4]triazin-4-yl)-2-methylbenzyl)-1,2,4-oxadiazole-3-carboxamide] gave an IC50 ([1]; Homo sapiens, B-cell) of 100 to 1000 nM, an IC50 [1] of less than 100 nM and an IC50 (BTK) of no more than 1 nM.
Work on `Cc1cc(-c2ncnn3cc(-c4ccncc4)cc23)ccc1CNC(=O)c1noc(C(C)(C)C)n1` [Example 38, 5-(tert-butyl)-N-(2-methyl-4-(6-(pyridin-4-yl)pyrrolo[2,1-f][1,2,4]triazin-4-yl)benzyl)-1,2,4-oxadiazole-3-carboxamide] yielded an IC50 ([1]; Homo sapiens, B-cell) of 100 to 1000 nM and an IC50 (BTK) of no more than 1 nM.
In the case of `Cc1cc(-c2ncnn3cc(N4CCN(C)CC4)cc23)ccc1CNC(=O)c1noc(C(C)(C)C)n1` [Example 4, 5-(tert-butyl)-N-(2-methyl-4-(6-(4-methylpiperazin-1-yl)pyrrolo[2,1-f][1,2,4]triazin-4-yl)benzyl)-1,2,4-oxadiazole-3-carboxamide trifluoroacetate], the IC50 ([1]; Homo sapiens, B-cell) is reported as less than 100 nM and the IC50 (BTK) is reported as no more than 1 nM.
Work on `Cn1cc(-c2cc3c(-c4ccc(CNC(=O)c5noc(C(C)(C)C)n5)c(C(F)F)c4F)ncnn3c2)cn1` [Example 36, 5-(tert-butyl)-N-(2-(difluoromethyl)-3-fluoro-4-(6-(1-methyl-1H-pyrazol-4-yl)pyrrolo[2,1-f][1,2,4]triazin-4-yl)benzyl)-1,2,4-oxadiazole-3-carboxamide hydrochloride] yielded an IC50 ([1]; Homo sapiens, B-cell) of 100 to 1000 nM and an IC50 (BTK) of no more than 1 nM.
With `Cc1c(CNC(=O)c2nc(C(C)(C)C)no2)ccc(-c2ncnn3cc(N4CCN(C)[C@@H](C)C4)cc23)c1F` (single isomer, unassigned) [Example 26] the IC50 ([1]; Homo sapiens, B-cell) was 100 to 1000 nM and the IC50 (BTK) was no more than 1 nM.
Work on `Cc1cc(-c2ncnn3cc(N4CCC(F)C4)cc23)ccc1CNC(=O)c1noc(C(C)(C)C)n1` (stereo not drawn) [Example 11, 5-(tert-butyl)-N-(4-(6-(3-fluoropyrrolidin-1-yl)pyrrolo[2,1-f][1,2,4]triazin-4-yl)-2-methylbenzyl)-1,2,4-oxadiazole-3-carboxamide trifluoroacetate] yielded an IC50 ([1]; Homo sapiens, B-cell) of 100 to 1000 nM and an IC50 (BTK) of no more than 1 nM.
In the case of `CC(C)(C)c1nc(C(=O)NCc2ccc(-c3ncnn4cc(N5CCOCC5)cc34)cc2C2CC2)no1` [Example 37, 5-(tert-butyl)-N-(2-cyclopropyl-4-(6-morpholinopyrrolo[2,1-f][1,2,4]triazin-4-yl)benzyl)-1,2,4-oxadiazole-3-carboxamide], the IC50 ([1]; Homo sapiens, B-cell) is reported as greater than 1000 nM and the IC50 (BTK) is reported as no more than 1 nM.
With `Cc1cc(-c2ncnn3cc(N4CCC(F)(F)C4)cc23)ccc1CNC(=O)c1noc(C(C)(C)C)n1` [Example 12, 5-(tert-butyl)-N-(4-(6-(3,3-difluoropyrrolidin-1-yl)pyrrolo[2,1-f][1,2,4]triazin-4-yl)-2-methylbenzyl)-1,2,4-oxadiazole-3-carboxamide trifluoroacetate] the IC50 ([1]; Homo sapiens, B-cell) was 100 to 1000 nM and the IC50 (BTK) was no more than 1 nM.
`Cc1c(CNC(=O)c2nc(C(C)(C)C)no2)ccc(-c2ncnn3cc(N4CCOCC4)cc23)c1F` [Example 2, 3-(tert-butyl)-N-(3-fluoro-2-methyl-4-(6-morpholinopyrrolo[2,1-f][1,2,4]triazin-4-yl)benzyl)-1,2,4-oxadiazole-5-carboxamide] was tested, and the IC50 ([1]; Homo sapiens, B-cell) was 100 to 1000 nM and the IC50 (BTK) was no more than 1 nM.
For `Cc1cc(-c2ncnn3cc(N4C[C@H](C)O[C@@H](C)C4)cc23)ccc1CNC(=O)c1noc(C(C)(C)C)n1` (single isomer, unassigned) [Example 44, hydrochloride], the IC50 ([1]; Homo sapiens, B-cell) was 100 to 1000 nM and the IC50 (BTK) was no more than 1 nM.
`Cc1cc(-c2ncnn3cc(N4C[C@@H](C)O[C@@H](C)C4)cc23)ccc1CNC(=O)c1noc(C(C)(C)C)n1` [Example 39, 5-(tert-butyl)-N-(4-(6-((2,6-syn)-2,6-dimethylmorpholino)pyrrolo[2,1-f][1,2,4]triazin-4-yl)-2-methylbenzyl)-1,2,4-oxadiazole-3-carboxamide] gave an IC50 ([1]; Homo sapiens, B-cell) of 100 to 1000 nM and an IC50 (BTK) of no more than 1 nM.
Work on `CC(C)(C)c1nc(C(=O)NCc2cc(F)c(-c3ncnn4cc(N5CCOCC5)cc34)cc2Cl)no1` [Example 1, 5-tert-butyl-N-[[2-chloro-5-fluoro-4-(6-morpholinopyrrolo[2,1-f][1,2,4]triazin-4-yl)phenyl]methyl]-1,2,4-oxadiazole-3-carboxamide] yielded an IC50 ([1]; Homo sapiens, B-cell) greater than 1000 nM and an IC50 (BTK) of no more than 1 nM.
For `CC(C)(C)n1ccc(C(=O)NCc2ccc(-c3ncnn4cc(N5CCOCC5)cc34)c(F)c2Cl)n1` [Example 158], the IC50 (BTK) was 1 to 10 nM.
Work on `Cc1cc(-c2ncnn3cc(C4CCOCC4)cc23)ccc1CNC(=O)c1nc(C(C)(C)C)no1` [Example 72, 3-(tert-butyl)-N-(2-methyl-4-(6-(tetrahydro-2H-pyran-4-yl)pyrrolo[2,1-f][1,2,4]triazin-4-yl)benzyl)-1,2,4-oxadiazole-5-carboxamide trifluoroacetate] yielded an IC50 (BTK) of 1 to 10 nM.
`CC(C)(C)c1nnc(C(=O)NCc2ccc(-c3ncnn4cc(N5CCOCC5)cc34)c(F)c2C2CC2)o1` [Example 163] was tested, and the IC50 (BTK) was 1 to 10 nM.
Work on `CC(C)(C)c1nc(C(=O)NCc2ccc(-c3ncnn4cccc34)cc2C(F)F)no1` [Example 181] yielded an IC50 (BTK) of 1 to 10 nM.
`Cc1cc(-c2ncnn3cc(-c4cnn(C)c4)cc23)ccc1CNC(=O)c1nnn(C(C)(C)C)n1` [Example 113] gave an IC50 (BTK) of no more than 1 nM.

From patent US12391697B2, “Condensed bi-heterocycles as inhibiting agents for Bruton's tyrosine kinase” (BIOGEN MA INC., priority 2019, dated 2025)
